In ChEMBL document CHEMBL1125143, “Relationship between structure, conformational flexibility, and biological activity of agonists and antagonists at the N-methyl-D-aspartic acid subtype of excitatory amino acid receptors” (J Med Chem, 1990):
The source made the active and inactive calls. No cut-off for these calls is given here.

What was measured:
[1] = target: T1, Glutamate NMDA receptor (Rattus norvegicus) (UniProt P35439+Q00959+Q00960+Q00961+Q62645+Q8VHN2+Q9R1M7)
[2] = target: T1, Glutamate NMDA receptor (Rattus norvegicus); assay: Agonistic activity against N-methyl-D-aspartate glutamate receptor was determined in rat cortical slice preparation at concentration up to 5 mM; Not active; type: functional
[3] = target: T1, Glutamate NMDA receptor (Rattus norvegicus); assay: Antagonistic activity against N-methyl-D-aspartate glutamate receptor antagonist was determined in rat cortical slice preparation at concentration up to 5 mM; not active; type: functional
[4] = target: T1, Glutamate NMDA receptor (Rattus norvegicus); assay: Effective dose required for agonistic activity against N-methyl-D-aspartate glutamate receptor was determined in rat cortical slice preparation; type: functional
[5] = target: T1, Glutamate NMDA receptor (Rattus norvegicus); assay: Antagonistic activity against N-methyl-D-aspartate glutamate receptor antagonist was determined in rat cortical slice preparation at concentration up to 1 mM; not active; type: functional
[6] = target: T1, Glutamate NMDA receptor (Rattus norvegicus); assay: Antagonistic activity against N-methyl-D-aspartate glutamate receptor antagonist was determined in rat cortical slice preparation at concentration up to 100 mM; not active; type: functional
[7] = target: T1, Glutamate NMDA receptor (Rattus norvegicus); assay: Antagonistic activity against N-methyl-D-aspartate glutamate receptor antagonist was determined in rat cortical slice preparation at concentration up to 100 mM; Active; type: functional

| ED50 [2] | ED50 [4] [µM] | Compound | other results |
| --- | --- | --- | --- |
| – | – | CN[C@H](CC(=O)O)C(=O)O | ED50 [1]: 15 µM |
| inactive | – | O=C(O)[C@@H]1CCC[C@H](C(=O)O)N1 | NA [3]: inactive |
| – | 35 | O=C(O)[C@@H]1CCCN[C@H]1C(=O)O (relative stereo) | – |
| – | 60 | O=C(O)[C@@H]1CCN[C@@H](C(=O)O)C1 (relative stereo) | – |
| – | – | O=C(O)[C@@H]1CC[C@H](C(=O)O)NC1 (relative stereo) | NA [5]: inactive |
| – | 15 | O=C(O)[C@H]1CCCN[C@H]1C(=O)O (relative stereo) | NA [6]: inactive |
| inactive | – | O=C(O)[C@H]1CCN[C@@H](C(=O)O)C1 (relative stereo) | A [7]: Active |
| inactive | – | O=C(O)[C@H]1CC[C@H](C(=O)O)NC1 (relative stereo) | NA [3]: inactive |
